From US8227497B2, “Dual-acting antihypertensive agents” (Theravance, Inc., priority 2008, dated 2012)

Legend:
[1] = molecular target: T1, human AT1 receptor (Homo sapiens, UniProt P30556); test: AT1 radioligand binding assay (Assay 1); conditions: displacement of [Eu]AngII, membranes of CHO-K1 cells expressing human AT1 receptor; read-out: pKi at the AT1 receptor (converted)
T1 construct: expressed in transfected cells; membranes
T1 sequence (P30556 1-359): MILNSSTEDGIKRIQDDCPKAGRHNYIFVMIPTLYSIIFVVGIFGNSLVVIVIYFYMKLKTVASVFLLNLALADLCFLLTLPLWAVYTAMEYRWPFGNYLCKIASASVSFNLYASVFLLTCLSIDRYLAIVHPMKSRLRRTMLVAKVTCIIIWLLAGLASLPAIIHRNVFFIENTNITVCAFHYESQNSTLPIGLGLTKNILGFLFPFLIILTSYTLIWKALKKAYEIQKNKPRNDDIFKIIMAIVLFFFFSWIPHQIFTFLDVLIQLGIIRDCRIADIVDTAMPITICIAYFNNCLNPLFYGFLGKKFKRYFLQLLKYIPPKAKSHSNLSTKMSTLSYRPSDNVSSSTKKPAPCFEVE
Method: These in vitro assays were used to assess the ability of test compounds to bind to the AT1 and the AT2 receptors.
Chinese hamster ovary (CHO-K1) derived cell lines stably expressing the cloned human AT1 or AT2 receptors, respectively, were grown in HAM's-F12 medium supplemented with 10% fetal bovine serum, 10 μg/ml penicillin/streptomycin, and 500 μg/ml geneticin in a 5% CO2 humidified incubator at 37° C. AT2 receptor expressing cells were grown in the additional presence of 100 nM PD123,319 (AT2 antagonist). When cultures reached 80-95% confluence, the cells were washed thoroughly in PBS and lifted with 5 mM EDTA. Cells were pelleted by centrifugation and snap frozen in MeOH-dry ice and stored at −80° C. until further use.
For membrane preparation, cell pellets were resuspended in lysis buffer (25 mM Tris/HCl pH 7.5 at 4° C., 1 mM EDTA, and one tablet of Complete Protease Inhibitor Cocktail Tablets with 2 mM EDTA per 50 mL buffer (Roche cat. #1697498, Roche Molecular Biochemicals, Indianapolis, Ind.)) and homogenized using a tight-fitting Dounce glass homogenizer (10 strokes) on ice. The homogenate was centrifuged at 1000×g, the supernatant was collected and centrifuged at 20,000×g. […] Protein concentration of the membrane suspension was determined by the method described in Bradford (1976) Anal Biochem. 72:248-54. […]

[2] = molecular target: T2, NEP enzyme (Homo sapiens, UniProt P08473); test: In vitro NEP enzyme inhibition assay (Assay 2); assay type: biochemical; conditions: fluorogenic peptide substrate, room temperature; read-out: pIC50 for the NEP enzyme (converted)
T2 construct: purchased R&D Systems, Minneapolis, Minn; 1182-ZN
T2 sequence (P08473 52-750 limits assumed): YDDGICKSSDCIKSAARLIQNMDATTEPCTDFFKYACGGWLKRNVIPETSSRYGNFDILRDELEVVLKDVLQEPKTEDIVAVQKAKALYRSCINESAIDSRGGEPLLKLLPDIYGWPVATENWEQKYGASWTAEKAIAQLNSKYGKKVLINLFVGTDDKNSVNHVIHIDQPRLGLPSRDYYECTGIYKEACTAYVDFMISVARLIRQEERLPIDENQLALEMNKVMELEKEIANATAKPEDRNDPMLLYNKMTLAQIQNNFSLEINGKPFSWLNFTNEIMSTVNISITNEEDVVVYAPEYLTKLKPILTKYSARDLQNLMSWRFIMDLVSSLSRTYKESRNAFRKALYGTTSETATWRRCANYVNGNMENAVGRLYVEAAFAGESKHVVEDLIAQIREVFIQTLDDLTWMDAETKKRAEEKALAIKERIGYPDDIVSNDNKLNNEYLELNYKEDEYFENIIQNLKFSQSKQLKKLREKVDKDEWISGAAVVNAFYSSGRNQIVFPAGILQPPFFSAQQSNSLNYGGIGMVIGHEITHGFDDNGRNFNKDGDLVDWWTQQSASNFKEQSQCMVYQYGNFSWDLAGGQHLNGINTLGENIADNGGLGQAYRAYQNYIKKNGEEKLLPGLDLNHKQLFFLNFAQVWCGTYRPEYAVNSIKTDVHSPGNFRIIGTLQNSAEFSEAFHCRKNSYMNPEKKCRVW
Method: The inhibitory activities of compounds at human and rat NEP and human ACE were determined using in vitro assays as described below.
Rat NEP was prepared from the kidneys of adult Sprague Dawley rats. Whole kidneys were washed in cold PBS and brought up in ice-cold lysis buffer (1% Triton X-114, 150 mM NaCl, 50 mM Tris pH 7.5; Bordier (1981) J. Biol. Chem. 256:1604-1607) in a ratio of 5 mL of buffer for every gram of kidney. Samples were homogenized using a polytron hand held tissue grinder on ice. Homogenates were centrifuged at 1000×g in a swinging bucket rotor for 5 minutes at 3° C. The pellet was resuspended in 20 mL of ice cold lysis buffer and incubated on ice for 30 minutes. […] Protein concentrations were quantitated using a BCA detection system with BSA as a standard. […]
The assays were performed in 384-well white opaque plates at room temperature using the respective fluorogenic peptides at a concentration of 10 μM in Assay Buffer (50 mM Tris/HCl at 25° C., 100 mM NaCl, 0.01% Tween-20, 1 μM Zn, 0.025% BSA). […] The rat NEP enzyme preparation was used at a concentration that yielded quantitative proteolysis of 3 μM of Mca-RRL within 20 minutes at room temperature. […]
Plates were read on a fluorometer with excitation and emission wavelengths set to 320 nm and 405 nm, respectively. […]

Ki [1]: < 100 nM
IC50 [2]: ≤ 100 nM
SMILES: CCCCc1nc(Cl)c(CO)n1Cc1ccc(-c2ccccc2S(=O)(=O)NC(=O)CNC(=O)C(Cc2ccccc2)C(=O)NO)cc1 (centres unmarked) [Example 1, 2-Benzyl-N-{2-[4′-(2-butyl-4-chloro-5-hydroxymethylimidazol-1-ylmethyl)biphenyl-2-sulfonylamino]-2-oxoethyl}-N′-hydroxymalonamide.(C2HF3O2)]
